Values of other authors, collected in patent US20230056424A1, “PREVENTION OF THE CONVERSION OF PHARMACEUTICAL AGENTS INTO TOXIC N-NITROSAMINE COMPOUNDS” (ALFRED E. TIEFENBACHER (GMBH & CO. KG), priority 2021, published 2023).

Details: standards established by the health authorities

## O=NN1C[C@H]2C[C@@H](C1)c1cc3nccnc3cc12 [N-nitroso-varenicline]
  maximum allowed daily intake: 37 ng/day
